Numbered stars: 1 amine (or outer) side, 2 acyl side, 3 side chain; on linkers, the order of the positions; unused ones are H or OH. Bridge positions count the residues as written; N and C are the ends. Square brackets hold non-standard residues; d marks the D form. Peptide text beside a SMILES is read from it. ξ: configuration not given here. ξαMeNle(6-ylidene) = CC(CCCC=[*:3])(N[*:1])C(=O)[*:2]; Nle = CCCC[C@H](N)C(=O)O
Columns and labels:
MCF7 = assay: MTT cell viability assay, MCF7; type: cell-based, human; conditions: 20 μM, MTT 48 hrs, FIG. 1
Procedure: (§1) Cell viability assays shown in FIGS. 1-32 were performed according to the following protocol. Tumor cell lines were grown in specific serum-supplemented media (growth media) as necessary. A day prior to the initiation of the study, cells were plated at optimal cell density (15,000 to 25,000 cells/well) in 200 μl growth media in microtiter plates. The next day, cells were washed twice in serum-free/phenol red-free RPMI complete media (assay buffer) and a final volume of 100 μl assay buffer was added to each well. Human peripheral blood lymphocytes (hPBLs) were isolated from Buffy coats (San Diego Blood Bank) using Ficoll-Paque gradient separation and plated on the day of the experiment at 25,000 cells/well.
(§2) Peptidomimetic macrocycles were diluted from 1 mM stocks (100% DMSO) in sterile water to prepare 400 μM working solutions. The peptidomimetic macrocycles and controls were then diluted 10 or […] or alternatively serially two-fold diluted in assay buffer in dosing plates to provide concentrations of either 40 and 20 μM or between 1.2 and 40 μM, respectively. […]
(§3) Towards the end of the 4 hour incubation time, 22 μl FBS was added to each well for a total concentration of 10% FBS. […] At the end of the incubation period, MTT assay was performed according to manufacturer's instructions (Sigma, catalog #M2128) and absorbance was measured at 560 nm using Dynex Opsys MR Plate reader. […]

[1] = tested on: leukemia/lymphoma human cell lines; assay: MTT cell viability assay, leukemia/lymphoma lines; type: cell-based; conditions: 20 μM, MTT 48 hrs, FIG. 1
Procedure: as §1, §2, §3

Bcl-2 = assay: Kd, μM | Bcl-2
Excerpt: Table printed on a drawing sheet, Figure 27
Head of the field: Kd, μM | Bcl-2
First copying reader's note: The last row (ABT-737) is a small-molecule comparator; the three plots above the table are not copied.
Where the first naming reader finds the target: head: Kd, μM | Bcl-2

[2] = tested on: resting human peripheral lymphocytes (hPBLs); assay: Cell viability of resting hPBLs; type: cell-based; conditions: FIG. 16
Procedure: as §1, §2, §3

MDA-MB231-Met = type: cell-based, human; conditions: 24 h
Outline: (§4)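 4000 cells/well, Opti-MEM; two-fold serial macrocycle dilutions, final 0.6–20 μM (serum-free) or 1.5–50 μM (2% human serum); 24 h, 37 °C, 5% CO2; CellTiter-Glo readout normalised to DMSO control; EC50; n=2.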

MM1S = type: cell-based, human; conditions: 24 h
Outline: as §4

SEMK2 = type: cell-based, human; conditions: 24 h
Outline: as §4

Molt-4 = type: cell-based, human; conditions: 24 h
Outline: as §4

NCI-H82 (SCLC-MCL1+) = type: cell-based, human; conditions: 24 h
Outline: as §4

A375 = type: cell-based, human; conditions: 24 h
Outline: as §4

OVCAR8 = type: cell-based, human; conditions: 24 h
Outline: as §4

Jurkat = type: cell-based, human; conditions: 24 h
Outline: as §4

RS4;11 = type: cell-based, human; conditions: 24 h
Outline: as §4

PC3 = type: cell-based, human; conditions: 24 h
Outline: as §4

DHL-6 = type: cell-based, human; conditions: 24 h
Outline: as §4

Raji = type: cell-based, human; conditions: 24 h
Outline: as §4

CCCC[C@H](NC(=O)C1(C)CCCC=CCCCC(C)(NC(=O)[C@H](C)NC(=O)[C@H](CC(C)C)NC(=O)[C@H](Cc2c[nH]cn2)NC(=O)[C@H](CCCNC(=N)N)NC(=O)[C@H](C)NC(=O)[C@@H](NC(=O)[C@H](CC(N)=O)NC(=O)[C@H](CCCNC(=N)N)NC(=O)[C@@H](NC(=O)[C@@H](NC(=O)[C@H](CC(=O)O)NC(C)=O)[C@@H](C)CC)[C@@H](C)CC)[C@@H](C)CC)C(=O)N[C@@H](C(C)C)C(=O)NCC(=O)N[C@@H](CC(=O)O)C(=O)N1)C(=O)N[C@@H](CC(=O)O)C(=O)N[C@@H](CCCNC(=N)N)C(=O)N[C@@H](CO)C(=O)N[C@H](C(N)=O)[C@@H](C)CC (stereo partly shown) [SP-1] (Ac-DIIRNIARHLA[ξαMeNle(6-ylidene)]VGD[ξαMeNle(6-ylidene)][Nle]DRSI-NH2; staple 12-16)
sensitivity of MCF7 (breast cancer) (MCF7): resistant | sensitivity of all leukemia/lymphoma lines tested [1]: sensitive | Kd (Bcl-2): 1 µM | programmed cell death of resting hPBLs [2]: does not induce programmed cell death | EC50 (MDA-MB231-Met): 9.8 µM | EC50 (MM1S): 3.5 µM | EC50 (SEMK2): 10 µM | EC50 (Molt-4): 4.3 µM | EC50 (NCI-H82 (SCLC-MCL1+)): 2.5 µM | EC50 (A375): 11 µM | EC50 (OVCAR8): 20 µM | EC50 (Jurkat): 2.5 µM | EC50 (RS4;11): > 20 µM | EC50 (PC3): 20 µM | EC50 (DHL-6): 7 µM | EC50 (Raji): 13 µM

— US20150038430A1, “THERAPEUTIC PEPTIDOMIMETIC MACROCYCLES” (AILERON Therapeutics, Inc., priority 2008, published 2015)
